From patent US20230265151A1, “GIP/GLP1 CO-AGONIST COMPOUNDS” (priority 2020, published 2023)
Like-named read-outs stand apart in the source and are kept apart here.

Columns and labels:
[1] = target: hGLP-1R (Homo sapiens, UniProt P43220); test: Functional cAMP formation (HTRF) in HEK-293 clonal cells expressing hGLP-1R, 0.1% bovine casein, without or with 1.0% human serum albumin; assay type: cell-based; set-up: expressed in transfected cells; conditions: geometric mean, read-out: hGLP-1R EC50, nM (SEM, n)
Chain of hGLP-1R (P43220 24-463): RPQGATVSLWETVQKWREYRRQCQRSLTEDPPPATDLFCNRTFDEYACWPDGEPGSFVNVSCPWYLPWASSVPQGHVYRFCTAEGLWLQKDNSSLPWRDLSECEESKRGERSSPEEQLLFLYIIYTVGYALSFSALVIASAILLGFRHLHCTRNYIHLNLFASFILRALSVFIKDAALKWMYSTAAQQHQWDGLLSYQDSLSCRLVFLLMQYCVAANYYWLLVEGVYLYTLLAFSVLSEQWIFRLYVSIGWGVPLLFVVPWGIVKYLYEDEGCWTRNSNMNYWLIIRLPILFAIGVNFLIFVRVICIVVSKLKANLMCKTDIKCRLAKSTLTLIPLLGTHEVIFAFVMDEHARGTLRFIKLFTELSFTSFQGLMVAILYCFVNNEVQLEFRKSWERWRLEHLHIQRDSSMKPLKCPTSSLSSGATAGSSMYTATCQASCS
In short: (§1)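 Readings of the HTRF 665/620 nm ratio, which falls as cAMP rises, were converted to nM cAMP using a standard curve after 30 min peptide exposure at 37° C.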

[2] = target: T1, hGCGR (Homo sapiens, UniProt P47871); test: Functional cAMP formation (HTRF) in HEK-293 clonal cells expressing hGCGR, 0.1% bovine casein, without or with 1.0% human serum albumin; assay type: cell-based; conditions: geometric mean, read-out: hGCGR EC50, nM (SEM, n)
T1 construct: expressed in transfected cells
T1 sequence (P47871 26-477): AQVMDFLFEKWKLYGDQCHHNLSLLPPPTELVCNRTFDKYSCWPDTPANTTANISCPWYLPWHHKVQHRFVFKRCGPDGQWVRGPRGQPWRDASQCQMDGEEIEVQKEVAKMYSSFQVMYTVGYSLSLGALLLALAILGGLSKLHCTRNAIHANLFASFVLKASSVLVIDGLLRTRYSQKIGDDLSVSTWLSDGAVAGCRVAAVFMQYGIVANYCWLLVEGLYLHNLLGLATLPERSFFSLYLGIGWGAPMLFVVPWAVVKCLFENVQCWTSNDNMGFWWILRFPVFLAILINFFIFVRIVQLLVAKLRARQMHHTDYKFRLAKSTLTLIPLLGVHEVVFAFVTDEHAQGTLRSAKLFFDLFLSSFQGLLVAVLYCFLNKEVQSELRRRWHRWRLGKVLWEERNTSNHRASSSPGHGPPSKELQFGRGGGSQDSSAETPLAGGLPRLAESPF
In short: as §1

[3] = target: T2, human Gcg receptor (hGcgR) (Homo sapiens, UniProt P47871); test: [125I]-Glucagon binding, SPA with membranes of HEK293 cells expressing hGcgR; conditions: human GcgR; geometric mean (SEM, n); read-out: Binding Affinity Ki, nM (SEM, n) hGCGR
T2 construct: expressed in transfected cells; crude membranes
T2 sequence (P47871 26-477): as above
Experimental: Two methods are used for the preparation of crude cell membranes.
Method 1: Frozen cell pellets are lysed on ice in hypotonic buffer containing 50 mM Tris HCl, pH 7.5, and Roche Complete™ Protease Inhibitors with EDTA. […] The homogenate is centrifuged at 4° C. at 1100 × g for 10 minutes. The supernatant is collected and stored on ice while the pellets are resuspended in homogenization buffer and rehomogenized as described above. The homogenate is centrifuged at 1100 × g for 10 minutes. The second supernatant is combined with the first supernatant and centrifuged at 35000 × g for 1 hour at 4° C. The resulting membrane pellet is resuspended in homogenization buffer containing protease inhibitors at approximately 1 to 3 mg/mL, quick frozen in liquid nitrogen and stored as aliquots in a -80° C. freezer until use.
The homogenate is centrifuged at 4° C. at 1800 × g for 15 minutes. The supernatant is collected and stored on ice while the pellets are resuspended in homogenization buffer (without DNAse I) and rehomogenized as described above. The homogenate is centrifuged at 1800 × g for 15 minutes. The second supernatant is combined with the first supernatant and centrifuged an additional time at 1800 × g for 15 minutes. The overall supernatant is then centrifuged at 25000 × g for 30 minutes at 4° C. The resulting membrane pellet is resuspended in homogenization buffer (without DNAse I) containing protease inhibitors at approximately 1 to 3 mg/mL and stored as aliquots in a -80° C. freezer until use.
The human Gcg receptor binding assays are performed using a Scintillation Proximity Assay (SPA) format with wheat germ agglutinin (WGA) beads (Perkin Elmer). The binding buffer contains 25 mM 4-(2-hydroxyethyl)-1-piperazineethanesulfonic acid (HEPES), pH 7.4, 2.5 mM CaCl2, 1 mM MgCh, 0.1% (w/v) bacitracin (Research Products), 0.003% (w/v) Polyoxyethylenesorbitan monolaurate (TWEEN®-20), and Roche Complete™ Protease Inhibitors without EDTA. […] Next, 5 µL serially diluted compound or DMSO is transferred into Corning® 3632 clear bottom assay plates containing 45 µL assay binding buffer or unlabeled Gcg control (non-specific binding or NSB, at 1 µM final). […] Plates are sealed and mixed on a plate shaker (setting 6) for 1 minute and read with a PerkinElmer Trilux MicroBeta® scintillation counter after 12 hours of incubation/settling time at room temperature.
Raw CPM data for concentration curves of peptides, Gcg, GLP-1, or GIP are converted to percent inhibition by subtracting nonspecific binding (binding in the presence of excess unlabeled Gcg, GLP-1, or GIP, respectively) from the individual CPM values and dividing by the total binding signal, also corrected by subtracting nonspecific binding. Data are analyzed using four-parameter (curve maximum, curve minimum, IC50, Hill slope) nonlinear regression routines (Genedata Screener, version 12.0.4, Genedata AG, Basal, Switzerland). […] Values for Ki are reported as the geometric mean, with error expressed as the standard error of the mean (SEM) and n is equal to the number of independent replicates (determined in assays performed on different days). Geometric Means are calculated as follows: […]
The Ki Ratio (Ki for native control peptide/Ki for test compound) at each receptor and each species is calculated. The Ki Ratio is a rapid indication of the apparent affinity of a peptide compared to the native control peptide.
n=⅟x means that only one value out of the total number of replicates (x) is used to express the mean. SEM is only calculated when n=2 or greater non-qualified results exist. Means are expressed as GeoMetric means with the standard error of the mean (SEM) and the number of replicates (n) indicated in parenthesis.

[4] = target: T3, hGIPR (Homo sapiens, UniProt P48546); test: Functional cAMP formation (HTRF) in HEK-293 clonal cells expressing hGIPR, 0.1% bovine casein, without or with 1.0% human serum albumin; assay type: cell-based; conditions: for EC50: geometric mean, read-out: hGIPR EC50, nM (SEM, n); for Emax: read-out: hGIPR Emax, % ± SEM
T3 construct: expressed in transfected cells
T3 sequence (P48546 22-466): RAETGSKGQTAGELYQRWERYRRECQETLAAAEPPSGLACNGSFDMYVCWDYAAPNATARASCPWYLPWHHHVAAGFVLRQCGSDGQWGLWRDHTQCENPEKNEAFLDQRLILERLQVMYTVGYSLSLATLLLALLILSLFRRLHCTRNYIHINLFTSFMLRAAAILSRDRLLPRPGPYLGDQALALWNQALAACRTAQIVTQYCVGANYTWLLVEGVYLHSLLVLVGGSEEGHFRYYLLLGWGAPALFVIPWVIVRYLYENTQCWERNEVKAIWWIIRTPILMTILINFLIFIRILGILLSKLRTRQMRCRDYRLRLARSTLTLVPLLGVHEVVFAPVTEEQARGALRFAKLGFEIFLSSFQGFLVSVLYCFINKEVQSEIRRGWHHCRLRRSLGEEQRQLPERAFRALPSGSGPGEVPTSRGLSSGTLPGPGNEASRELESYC
In short: as §1

[5] = 0.1% bovine casein and 1.0% human serum albumin, 37° C.
[6] = cAMP, incubated at 37° C., 0.1% bovine casein (no human serum albumin)
[7] = HEK293, 0.1% bovine casein and 1.0% human serum albumin, 37° C., percent of maximal response to GIP(1-42)NH2
[8] = HEK293, percent of maximal response to GIP(1-42)NH2, 37° C., 0.1% bovine casein, arithmetic mean

| Structure (SMILES) | EC50 [1, 5] [nM] | EC50 [2, 5] [nM] | EC50 [2, 6] [nM] | Ki [3] [nM] | EC50 [4, 5] [nM] | Emax [4, 7] [%] | Emax [4, 8] [%] | EC50 [4, 6] [nM] | EC50 [1, 6] [nM] |
| --- | --- | --- | --- | --- | --- | --- | --- | --- | --- |
| CC[C@H](C)[C@H](NC(=O)[C@H](CC(C)C)NC(=O)[C@](C)(Cc1ccc(O)cc1)NC(=O)[C@@H](CCC(=O)O)NC(=O)[C@@H](NC(=O)[C@H](Cc1ccccc1)NC(=O)[C@H](CCC(=O)O)NC(=O)C(C)(C)NC(=O)[C@H](CCC(N)=O)NC(=O)[C@H](C)NC(=O)[C@H](CCCCNC(=O)COCCOCCNC(=O)COCCOCCNC(=O)CC[C@H](NC(=O)CCCCCCCCCCCCC(=O)O)C(=O)O)NC(=O)[C@H](CCCN)NC(=O)[C@H](CC(=O)O)NC(=O)[C@H](CC(C)C)NC(=O)[C@](C)(CC(C)C)NC(=O)[C@@H](NC(=O)[C@H](CO)NC(=O)[C@H](Cc1ccncc1)NC(=O)[C@H](CC(=O)O)NC(=O)[C@H](CO)NC(=O)[C@@H](NC(=O)[C@](C)(Cc1ccccc1F)NC(=O)[C@@H](NC(=O)CNC(=O)[C@H](CCC(=O)O)NC(=O)C(C)(C)NC(=O)[C@@H](N)Cc1ccc(O)cc1)[C@@H](C)O)[C@@H](C)O)[C@@H](C)CC)[C@@H](C)CC)C(=O)N[C@@H](CCC(=O)O)C(=O)NCC(=O)N[C@@H](CCCCNC(=O)COCCOCCNC(=O)COCCOCCNC(=O)CC[C@H](NC(=O)CCCCCCCCCCCCC(=O)O)C(=O)O)C(=O)N1CCC[C@H]1C(=O)N[C@@H](CO)C(=O)N[C@@H](CO)C(=O)NCC(=O)N[C@@H](C)C(=O)N1CCC[C@H]1C(=O)N1CCC[C@H]1C(=O)N1CCC[C@H]1C(=O)N[C@@H](CO)C(N)=O [Example 18] | 164 | > 9950 | > 9950 | > 958 | 1.12 | 86.9 ± 3.59 | 97.1 ± 3.28 | 0.0226 |  |
| CC[C@H](C)[C@H](NC(=O)[C@H](CC(C)C)NC(=O)[C@](C)(Cc1ccc(O)cc1)NC(=O)[C@@H](CCC(=O)O)NC(=O)[C@@H](NC(=O)[C@H](Cc1ccccc1)NC(=O)[C@H](CCC(=O)O)NC(=O)C(C)(C)NC(=O)[C@H](CCC(N)=O)NC(=O)[C@H](C)NC(=O)[C@H](CCCCNC(=O)COCCOCCNC(=O)COCCOCCNC(=O)CC[C@H](NC(=O)CCCCCCCCCCCCC(=O)O)C(=O)O)NC(=O)[C@H](CCCN)NC(=O)[C@H](CC(=O)O)NC(=O)[C@H](CC(C)C)NC(=O)[C@](C)(CC(C)C)NC(=O)[C@@H](NC(=O)[C@H](CO)NC(=O)[C@H](Cc1ccncc1)NC(=O)[C@H](CC(=O)O)NC(=O)[C@H](CO)NC(=O)[C@@H](NC(=O)[C@](C)(Cc1ccccc1F)NC(=O)[C@@H](NC(=O)CNC(=O)[C@H](CCC(=O)O)NC(=O)C(C)(C)NC(=O)[C@@H](N)Cc1ccc(O)cc1)[C@@H](C)O)[C@@H](C)O)[C@@H](C)CC)[C@@H](C)CC)C(=O)N[C@@H](CCC(=O)O)C(=O)NCC(=O)NCC(=O)N1CCC[C@H]1C(=O)N[C@@H](CO)C(=O)N[C@@H](CO)C(=O)NCC(=O)N[C@@H](C)C(=O)N1CCC[C@H]1C(=O)N1CCC[C@H]1C(=O)N1CCC[C@H]1C(=O)N[C@@H](CO)C(=O)N[C@@H](CCCCNC(=O)COCCOCCNC(=O)COCCOCCNC(=O)CC[C@H](NC(=O)CCCCCCCCCCCCC(=O)O)C(=O)O)C(N)=O [Example 19] | 24.4 | > 9950 | > 9950 | > 966 | 0.438 | 89.7 ± 2.13 | 96.6 ± 2.7 | 0.0158 | 1.34 |
| CC[C@H](C)[C@H](NC(=O)[C@H](CCCN)NC(=O)[C@H](CC(=O)O)NC(=O)[C@H](CC(C)C)NC(=O)[C@](C)(CC(C)C)NC(=O)[C@@H](NC(=O)[C@H](CO)NC(=O)[C@H](Cc1ccncc1)NC(=O)[C@H](CC(=O)O)NC(=O)[C@H](CO)NC(=O)[C@@H](NC(=O)[C@](C)(Cc1ccccc1F)NC(=O)[C@@H](NC(=O)CNC(=O)[C@H](CCC(=O)O)NC(=O)C(C)(C)NC(=O)[C@@H](N)Cc1ccc(O)cc1)[C@@H](C)O)[C@@H](C)O)[C@@H](C)CC)C(=O)N[C@@H](C)C(=O)N[C@@H](CCC(N)=O)C(=O)NC(C)(C)C(=O)N[C@@H](CCC(=O)O)C(=O)N[C@@H](Cc1ccccc1)C(=O)N[C@H](C(=O)N[C@H](CCC(=O)O)C(=O)N[C@@](C)(Cc1ccc(O)cc1)C(=O)N[C@@H](CC(C)C)C(=O)N[C@H](C(=O)N[C@@H](CCCCNC(=O)COCCOCCNC(=O)COCCOCCNC(=O)CC[C@H](NC(=O)CCCCCCCCCCCCC(=O)O)C(=O)O)C(=O)NCC(=O)NCC(=O)N[C@@H](CCCCNC(=O)COCCOCCNC(=O)COCCOCCNC(=O)CC[C@H](NC(=O)CCCCCCCCCCCCC(=O)O)C(=O)O)C(=O)N[C@@H](CO)C(=O)N[C@@H](CO)C(=O)NCC(=O)N[C@@H](C)C(=O)N1CCC[C@H]1C(=O)N1CCC[C@H]1C(=O)N1CCC[C@H]1C(=O)N[C@@H](CO)C(N)=O)[C@@H](C)CC)[C@@H](C)CC [Example 20] | 62.4 | > 9950 | > 9950 | 139 | 1.66 | 90.6 ± 0.878 | 98.8 ± 3.19 |  |  |
